# Results: PMC8617031, “Development of a BCL-xL and BCL-2 dual degrader with improved anti-leukemic activity,” (Nature Communications, 2021)
# Where “and” joins values, the source holds several entries; their conditions need not be identical. Identical values can stand only once. Like-named read-outs stand apart in the source and are kept apart here.
# Key:
# Assay type in all cases: cell-based, human
# [1] = system: BCL-xL/PROTAC/VCB ternary complex (HiBit-BCL-xL, HaloTag-VHL); assay: NanoBRET intracellular ternary complex formation in 293T cells, BCL-xL; details: for NanoBRET signal (610/450 ratio, background-subtracted), Ave, Bcl-xl: Ave of Read1 and Read2, per replicate well; for NanoBRET signal (610/450 ratio, background-subtracted), Read1, Bcl-xl / NanoBRET signal (610/450 ratio, background-subtracted), Read2, Bcl-xl: individual replicate wells
# From the text: (§1) Plasmids HaloTag-VHL (Cat. No. CS1679C155) and CMV HiBit (Cat. No. CS1956B03) were purchased from Promega. HiBit-BCL-xL and HiBit-BCL-2 were constructed previously. The two mutants (HiBit-BCL-xL-K157-only and HiBit-BCL-xL-K-ko) were constructed through Gibson assembly method. The primer pair (5′-[…]-3′ and 5′-[…]c[…]-3′) and the template Flag-BCL-xL-K157-only or Flag-BCL-xL-K-ko (pDL2129)[2] were used to clone the BCL-xL-K157-only-containing and BCL-xL-K-ko-containing fragments, respectively. The primer pair (5′-[…]g[…]-3′ and 5′-[…]-3′) and pBit3.1-N (Cat. No. N2361, Promega) were used to clone the vector-containing fragment. The PCR fragments were assembled using NEBuilder® HiFi DNA Assembly Master Mix (Cat. No. E2621, NEB, Ipswich, MA, USA). DNA sequences in all these plasmids were authenticated by automatic sequencing. […] After 24 h, 2 × 10^4 transfected cells were seeded into white 96-well tissue culture plates in Gibco™ Opti-MEM™ I Reduced Serum Medium, No Phenol Red (Cat. No. 11-058-021, Fisher) containing 4% FBS with or without HaloTag NanoBRET 618 Ligand (Cat. No. PRN1662, Promega) and incubated overnight at 37 °C, 5% CO2. The following day, serial diluted compounds were added into the medium and plates were incubated at 37 °C, 5% CO2, for 6 h. After treatment, NanoBRET Nano-Glo Substrate (cat. no. N1662, Promega) was added into the medium, and the contents were mixed by shaking the plate for 30 s before measuring donor and acceptor signals on Biotek plate reader. Dual-filtered luminescence was collected with a 450/50 nm bandpass filter (donor, NanoBiT-BCL-XL protein or NanoBiT-BCL-2 protein) and a 610-nm longpass filter (acceptor, HaloTag NanoBRET ligand) using an integration time of 0.5 s. mBRET ratios were calculated following the NanoBRET™ Nano-Glo® Detection System (Cat. No. N1662, Promega).
# [2] = system: BCL-2/PROTAC/VCB ternary complex (HiBit-BCL-2, HaloTag-VHL); assay: NanoBRET intracellular ternary complex formation in 293T cells, BCL-2; details: for NanoBRET signal (610/450 ratio, background-subtracted), Ave, Bcl-2: Ave of Read1 and Read2, per replicate well; for NanoBRET signal (610/450 ratio, background-subtracted), Read1, Bcl-2 / NanoBRET signal (610/450 ratio, background-subtracted), Read2, Bcl-2: individual replicate wells
# From the text: as §1
# Kasumi-1 cells = assay: Viability (MTS) of Kasumi-1 AML cells; details: for IC50: Homo sapiens, Kasumi 1, 72 h
compound,measurement,setting,value
Cc1ncsc1-c1ccc(C(C)NC(=O)C2CC(O)CN2C(=O)C(NC(=O)CCCCCCCCCC(=O)N2CCN(CC3(C)CCC(c4ccc(Cl)cc4)=C(CN4CCN(c5ccc(C(=O)NS(=O)(=O)c6ccc(NC(CCN7CCOCC7)CSc7ccccc7)c(S(=O)(=O)C(F)(F)F)c6)cc5)CC4)C3)CC2)C(C)(C)C)cc1 (mixture of isomers) [319-C11],"NanoBRET signal (610/450 ratio, background-subtracted), Ave, Bcl-xl",[1]; 0.333 uM,5.756 and 6.621 and 6.037
same,"NanoBRET signal (610/450 ratio, background-subtracted), Read1, Bcl-xl",[1]; 0.333 uM,6.07 and 6.538 and 6.1116
same,"NanoBRET signal (610/450 ratio, background-subtracted), Read2, Bcl-xl",[1]; 0.333 uM,5.442 and 6.704 and 5.963
same,"NanoBRET signal (610/450 ratio, background-subtracted), Ave, Bcl-xl",[1]; 1 uM,5.696 and 5.538 and 6.106
same,"NanoBRET signal (610/450 ratio, background-subtracted), Read1, Bcl-xl",[1]; 1 uM,5.861 and 5.46 and 6.469
same,"NanoBRET signal (610/450 ratio, background-subtracted), Read2, Bcl-xl",[1]; 1 uM,5.532 and 5.616 and 5.743
same,"NanoBRET signal (610/450 ratio, background-subtracted), Ave, Bcl-xl",[1]; 3 uM,5.386 and 5.324 and 6.583
same,"NanoBRET signal (610/450 ratio, background-subtracted), Read1, Bcl-xl",[1]; 3 uM,5.512 and 5.444 and 6.844
same,"NanoBRET signal (610/450 ratio, background-subtracted), Read2, Bcl-xl",[1]; 3 uM,5.259 and 5.204 and 6.3216
same,"NanoBRET signal (610/450 ratio, background-subtracted), Ave, Bcl-2",[2]; 0.333 uM,4.383 and 4.153 and 4.737
same,"NanoBRET signal (610/450 ratio, background-subtracted), Read1, Bcl-2",[2]; 0.333 uM,4.892 and 4.708 and 4.979
same,"NanoBRET signal (610/450 ratio, background-subtracted), Read2, Bcl-2",[2]; 0.333 uM,3.874 and 3.599 and 4.495
same,"NanoBRET signal (610/450 ratio, background-subtracted), Ave, Bcl-2",[2]; 1 uM,4.831 and 5.865 and 5.494
same,"NanoBRET signal (610/450 ratio, background-subtracted), Read1, Bcl-2",[2]; 1 uM,4.901 and 5.9757 and 5.389
same,"NanoBRET signal (610/450 ratio, background-subtracted), Read2, Bcl-2",[2]; 1 uM,4.762 and 5.754 and 5.599
same,"NanoBRET signal (610/450 ratio, background-subtracted), Ave, Bcl-2",[2]; 3 uM,4.755 and 5.241 and 5.369
same,"NanoBRET signal (610/450 ratio, background-subtracted), Read1, Bcl-2",[2]; 3 uM,5 and 5.455 and 5.5909
same,"NanoBRET signal (610/450 ratio, background-subtracted), Read2, Bcl-2",[2]; 3 uM,4.5106 and 5.027 and 5.1462
"CC1(C)CCC(CN2CCN(c3ccc(C(=O)NS(=O)(=O)c4ccc(NCC5CCOCC5)c([N+](=O)[O-])c4)c(Oc4cnc5[nH]ccc5c4)c3)CC2)=C(c2ccc(Cl)cc2)C1 [ABT199, venetoclax]",Luminescence (raw plate reading),"Kasumi-1 cells; 3.90625 nM (plate column 2), Fig. 7a",505600 and 468580 and 525678 and 543318
same,Luminescence (raw plate reading),"Kasumi-1 cells; 7.8125 nM (plate column 3), Fig. 7a",504424 and 455660 and 487360 and 542979
same,Luminescence (raw plate reading),"Kasumi-1 cells; 15.625 nM (plate column 4), Fig. 7a",489014 and 455068 and 501527 and 480804
same,Luminescence (raw plate reading),"Kasumi-1 cells; 31.25 nM (plate column 5), Fig. 7a",466073 and 441818 and 471956 and 491899
same,Luminescence (raw plate reading),"Kasumi-1 cells; 62.5 nM (plate column 6), Fig. 7a",440585 and 409812 and 377802 and 367500
same,Luminescence (raw plate reading),"Kasumi-1 cells; 125 nM (plate column 7), Fig. 7a",397154 and 357971 and 355935 and 386744
same,Luminescence (raw plate reading),"Kasumi-1 cells; 250 nM (plate column 8), Fig. 7a",359551 and 316363 and 300748 and 321366
same,Luminescence (raw plate reading),"Kasumi-1 cells; 500 nM (plate column 9), Fig. 7a",315682 and 289875 and 281016 and 292587
same,Luminescence (raw plate reading),"Kasumi-1 cells; 1000 nM (plate column 10), Fig. 7a",293868 and 256148 and 279970 and 273769
same,Luminescence (raw plate reading),"Kasumi-1 cells; 2000 nM = 2U (plate column 11), Fig. 7a",258049 and 207791 and 210071 and 198590
same,Luminescence (raw plate reading),"Kasumi-1 cells; 4000 nM = 4U (plate column 12), Fig. 7a",180705 and 155931 and 141587 and 133830
same,"Luminescence normalised to mean of the 0 concentration wells (= 100), viability","Kasumi-1 cells; 3.90625 (nM), Fig. 7a",73.8707 and 68.4619 and 76.8042 and 79.3815
same,"Luminescence normalised to mean of the 0 concentration wells (= 100), viability","Kasumi-1 cells; 7.8125 (nM), Fig. 7a",73.6989 and 66.5743 and 71.2058 and 79.332
same,"Luminescence normalised to mean of the 0 concentration wells (= 100), viability","Kasumi-1 cells; 15.625 (nM), Fig. 7a",71.4474 and 66.4878 and 73.2757 and 70.2479
same,"Luminescence normalised to mean of the 0 concentration wells (= 100), viability","Kasumi-1 cells; 31.25 (nM), Fig. 7a",68.0956 and 64.5519 and 68.9552 and 71.869
same,"Luminescence normalised to mean of the 0 concentration wells (= 100), viability","Kasumi-1 cells; 62.5 (nM), Fig. 7a",64.3717 and 59.8756 and 55.1988 and 53.6936
same,"Luminescence normalised to mean of the 0 concentration wells (= 100), viability","Kasumi-1 cells; 125 (nM), Fig. 7a",58.0262 and 52.3014 and 52.0039 and 56.5053
same,"Luminescence normalised to mean of the 0 concentration wells (= 100), viability","Kasumi-1 cells; 250 (nM), Fig. 7a",52.5322 and 46.2223 and 43.9408 and 46.9532
same,"Luminescence normalised to mean of the 0 concentration wells (= 100), viability","Kasumi-1 cells; 500 (nM), Fig. 7a",46.1228 and 42.3522 and 41.0579 and 42.7485
same,"Luminescence normalised to mean of the 0 concentration wells (= 100), viability","Kasumi-1 cells; 1000 (nM), Fig. 7a",42.9356 and 37.4245 and 40.905 and 39.9991
same,"Luminescence normalised to mean of the 0 concentration wells (= 100), viability","Kasumi-1 cells; 2000 (nM, 2U), Fig. 7a",37.7023 and 30.3593 and 30.6924 and 29.015
same,"Luminescence normalised to mean of the 0 concentration wells (= 100), viability","Kasumi-1 cells; 4000 (nM, 4U), Fig. 7a",26.4019 and 22.7823 and 20.6866 and 19.5532
same,IC50,"Kasumi-1 cells; Fig. 7a, read-out: IC50, viability of Kasumi-1 AML cells",867 nM
same,IC50,"Kasumi-1 cells; Fig. 7c, read-out: IC50, viability of Kasumi-1 cells",1130 nM
